Measured values as given in patent US10449206B2, “Indolealkylamino-withasteroid conjugates and method of use” (Natreon, Inc., priority 2011, dated 2019).
Where a name gives a salt, the structure may show the parent alone. Marks after values point to notes of the source that are not given here.

Assays:
[1] = tested on: Scopolamine-induced amnesic mice; experiment: Scopolamine hydrobromide-induced amnesia, transfer latency on elevated plus maze; settings: for Transfer Latency, Day 8: learning trial; for % Decrease in Transfer Latency, Mean ± SD: Table 16
Description: The elevated plus maze is used to measure the memory learning activity in mice; however, transfer latency, i.e., the time elapsed between the movement of the animal from an open to an enclosed arm was markedly shortened if the animal had previously experienced entering open and closed arms.
Retention was recorded after 24 hrs (9th day) and after an interval of one week (16th day).
Drug protocol. The animals were divided into 7 groups (Group I-VII) of eight animals in each group. Group I received vehicle (0.3% CMC) only and served as vehicle control. Groups II-VII were treated with the respective test drugs, as per the details mentioned in Table 1 below, for 16 days. […] Transfer Latency was recorded after 45 minutes of the drug administration on 8th day (learning trial) and 24 hrs (9th day) and one week (16th day) after learning trial.
Retention in elevated plus maze test was used to assess the memory functions in test animals. The plus maze consists of two open opposite arms, (50×10 cm) length×width, crossed with two enclosed arms of same dimensions with walls 40 cm high. The arms are connected with a central square, (10×10 cm) to give the apparatus a plus-sign appearance. The maze was kept elevated 50 cm above the floor in a dimly lit room. On day 8, mice were individually placed on far end of one of the open arms facing away from the center and transfer latency (TL) on day 8 was recorded. TL is the time taken by the mouse to move into any one of the covered arms with all its four legs. […] On day 9, the mice were again placed on the far end of the open arm and time taken by the mice to enter the enclosed arm, transfer latency (TL) day 9, was recorded. Similarly after an interval of one week, on day 16, the transfer latency (TL) day 16 was again recorded.
The retention scores were obtained for each animal by calculating percent decrease in latency period by the formula: % decrease in TL=(L1−L0/L0)×100
where, L0=initial transfer latency period in seconds, and L1=transfer latency after 24 hrs, or one week.

[2] = biological target: acetylcholinesterase (AChE) (Homo sapiens, UniProt P22303); experiment: In vitro acetylcholinesterase (AChE) activity assay, method of Ellman et al. with acetylthiocholine iodide as substrate; format: biochemical; settings: for IC50: Mean ± SD of three replicates, synthetic conjugates, read-out: Acetylcholinesterase inhihitory activity IC50 (converted)
Description: The acetylcholinesterase (AChE) assay was performed by the method of Ellman et al., with minor modification, using acetylthiocholine Iodide as a substrate (G. L. Ellman, et al., “A new and rapid colorimetric determination of acetylcholinesterase activity,” Biochem. Pharmacol. (1961) 7: 88-95). Ellman's reaction mixture was made from a combination of 10 mM Acetylthiocholine iodide and 0.5 mM 5,5′-dithio-bis-(2-nitrobenzoic acid) in a 0.05 M sodium phosphate buffer (pH 7.2). The rates of hydrolysis by AChE were monitored spectrophotometrically using a 96-well microtiter plate reader. Each test sample (10 μl) and 0.05 M sodium phosphate buffer (30 μl) was mixed with the enzyme solution (10 μl). An Ellman's reaction mixture (50 μl) was further added to give a final volume of 100 μl, and the mixture was incubated at 37° C. for 30 min. Absorbance at 450 nm was recorded immediately after adding the Ellman's reaction mixture. Reading was repeated for 10 min at 2 min intervals to verify that the reaction occurred linearly. Blank reaction was measured by substituting saline for the enzyme (Y. K. Chung, et al., “Inhibitory effect of ursolic acid purified from Origanum majorana L. on the acetylcholinesterase,” Mol. Cells (2001) 11: 137-143).
The acetylcholinesterase (AChE) assay was performed by the method of Ellman et. al., with minor modification, using acetylthiocholine Iodide as a substrate (G. L. Ellman, et al., “A new and rapid colorimetric determination of acetylcholinesterase activity,” Biochem. Pharmacol. (1961) 7: 88-95). Ellman's reaction mixture was made from a combination of 10 mM Acetylthiocholine iodide and 0.5 mM 5,5′-dithio-bis-(2-nitrobenzoic acid) in a 0.05 M sodium phosphate buffer (pH 7.2). The rates of hydrolysis by AChE were monitored spectrophotometrically using a 96-well microtiter plate reader. Each test sample (10 μl) and 0.05 M sodium phosphate buffer (30 μl) was mixed with the enzyme solution (10 μl). An Ellman's reaction mixture (50 μl) was further added to give a final volume of 100 μl, and the mixture was incubated at 37° C. for 30 min. Absorbance at 450 nm was recorded immediately after adding the Ellman's reaction mixture. Reading was repeated for 10 min at 2 min intervals to verify that the reaction occurred linearly. Blank reaction was measured by substituting saline for the enzyme (Y. K. Chung, et al., “Inhibitory effect of ursolic acid purified from Origanum majorana L. on the acetylcholinesterase,” Mol. Cells (2001) 11: 137-143).

[3] = tested on: brain tissue Malondialdehyde (MDA); format: in vivo, Swiss Albino mice; settings: day 16; test sample p.o. (50/20/30/1/1 mg/kg) + SH 0.5 mg/kg i.p.; mean ± SEM, n=4
From the text: Estimation of lipid peroxidation.
Alzheimer's disease (AD) is an irreversible neurodegenerative disorder having symptoms including confusion, memory loss, and mood swings. The beta-amyloid peptide (BAP), with 39-42 amino acid residues, plays a significant role in the development of AD. Although there is no cure for AD, it can be managed with available drugs, but only to a small degree in a small subset of patients. […] In this study, the lipid peroxidation levels in brains of different treatment groups were measured by estimating the brain tissue Malondialdehyde (MDA) concentration. 5.

mice = experiment: Open-field exploratory behavior test, anxiety paradigm; parameters: species or system Swiss Albino mice; settings: mouse, in vivo
Description: Drug preparation and administration of doses.
Study design. The behavioral tests conducted with multiple seven-dose schedules. The mice were tested only once after the completion of the drug treatment schedule in the elevated plus maze and open field. The studies were carried out in a sound proof room to avoid disturbances to the animals during the behavioral studies. Exposure to a novel environment is associated with emotional disturbance and anxiety. […] Anxiety is also associated with augmented autonomic activity resulting in increased defecation and urination. All these effects are accentuated by anxiogenic drugs and attenuated by anxiolytics. Standard screening procedures such as open field method and elevated plus maze test were used to screen the anxiolytic effect of drugs in comparison with a standard drug, Diazepam.
Open-field exploratory behavior test. The open field exploratory apparatus is similar to that of Bronstein (P. M. Bronstein, “Open field behaviour of the rat as a function of age: cross sectional and longitudinal investigations,” J. Comp. Physiol. Psycol. (1972) 80: 335-341). It is made of plywood and consists of squares (61×61 cm) with high walls. […] The ratio between the number of times the animal crossed the central and the number of times the animal crossed the peripheral square is calculated.

[4] = Example 7B, synthetic conjugates 1 and 5 mg/kg p.o. 16 days
[5] = Table 15, conjugate 1 mg/kg p.o. + SH 0.5 mg/kg i.p., mean ± SD, n=8
[6] = Table 15, conjugate 1 mg/kg p.o., mean ± SD, n=8
[7] = Table 15, conjugate 5 mg/kg p.o. + SH 0.5 mg/kg i.p., mean ± SD, n=8
[8] = Table 15, conjugate 5 mg/kg p.o., mean ± SD, n=8
[9] = after 24 h (day 9), conjugate 1 mg/kg p.o. + SH 0.5 mg/kg i.p., n=8
[10] = after 24 h (day 9), conjugate 5 mg/kg p.o. + SH 0.5 mg/kg i.p., n=8
[11] = Table 17, after 1 week (day 16), conjugate 1 mg/kg p.o. + SH 0.5 mg/kg i.p., n=8
[12] = Table 17, after 1 week (day 16), conjugate 5 mg/kg p.o. + SH 0.5 mg/kg i.p., n=8
[13] = Table 2, SH 0.5 mg/kg i.p. alone, mean ± SEM
[14] = Table 15, SH 0.5 mg/kg i.p. alone, mean ± SD

Chain of acetylcholinesterase (AChE) (P22303 32-614, species assumed): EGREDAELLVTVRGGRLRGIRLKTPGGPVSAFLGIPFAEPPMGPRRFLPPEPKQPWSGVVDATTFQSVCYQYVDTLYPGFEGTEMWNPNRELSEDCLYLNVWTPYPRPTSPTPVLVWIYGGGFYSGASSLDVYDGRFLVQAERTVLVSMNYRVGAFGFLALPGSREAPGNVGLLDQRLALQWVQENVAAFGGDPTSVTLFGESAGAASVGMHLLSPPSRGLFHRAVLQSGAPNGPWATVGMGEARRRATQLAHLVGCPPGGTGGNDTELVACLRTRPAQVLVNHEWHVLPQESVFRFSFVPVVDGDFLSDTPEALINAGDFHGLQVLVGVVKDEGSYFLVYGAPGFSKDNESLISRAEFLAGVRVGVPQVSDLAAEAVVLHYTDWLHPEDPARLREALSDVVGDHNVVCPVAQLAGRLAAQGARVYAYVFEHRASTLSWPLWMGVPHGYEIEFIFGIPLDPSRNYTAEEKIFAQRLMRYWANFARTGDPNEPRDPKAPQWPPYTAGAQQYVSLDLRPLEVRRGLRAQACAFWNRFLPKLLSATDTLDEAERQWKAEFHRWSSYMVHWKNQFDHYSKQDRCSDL

Compound | effect on Scopolamine-induced amnesia (in words) [1, 4] | Transfer Latency, Day 9 [1, 5] | Transfer Latency, Day 16 [1, 5] | Transfer Latency, Day 8 [1, 6] [s] | Transfer Latency, Day 9 [1, 7] | Transfer Latency, Day 16 [1, 7] | Transfer Latency, Day 8 [1, 8] [s] | % Decrease in Transfer Latency, Mean ± SD [1, 9] [%] | % Decrease in Transfer Latency, Mean ± SD [1, 10] | % Decrease in Transfer Latency, Mean ± SEM [1, 11] | % Decrease in Transfer Latency, Mean ± SEM [1, 12] | in vitro acetylcholinesterase inhibitory activity (in words) [2] | IC50 [2] [µM] | other results
COc1ccc2[nH]cc(CCNC3CC(=O)[C@]4(C)[C@H]5CC[C@]6(C)[C@@H]([C@H](C)[C@H]7CC(C)=C(CO)C(=O)O7)CC[C@H]6[C@@H]5C[C@H]5O[C@]54[C@H]3O)c2c1 (stereo partly shown) | significantly attenuated and reversed the Scopolamine-induced amnesia | 76.63 ± 33.95 s | 43.13 ± 12.43 s | 139.1 ± 25.05 | 37.25 ± 4.43^bb s | 18.00 ± 4.14^bbb s | 141.00 ± 35.66 | 45.62 ± 16.51 | 72.18 ± 6.60. % | 69.13 ± 5.38% | 85.79 ± 9.92^bb % | good dose-dependent in-vitro acetylcholinesterase inhibitory activity | 149 | –
CN1[C@@H]2C[C@@H](OC(=O)[C@H](CO)c3ccccc3)C[C@H]1[C@@H]1O[C@@H]12 [SH, Scopolamine Hydrobromide, reference compound] | – | – | – | – | – | – | – | – | – | – | – | – | – | induction of amnesia (in words) ([1]; SH 0.5 mg/kg i.p. alone vs vehicle): produced amnesia in animals; Transfer Latency, Day 8 ([1]; Table 2, SH 0.5 mg/kg i.p. alone group, mean ± SEM): 171.50 ± 16.08 s; Transfer Latency, Day 9 [1, 13]: 143.90 ± 15.30 s; Transfer Latency, Day 16 [1, 13]: 133.10 ± 15.95 s; % Decrease in Transfer Latency, Mean ± SEM ([1]; Table 3, after 24 h (day 9), SH 0.5 mg/kg i.p. alone): 14.91 ± 5.75%; % Decrease in Transfer Latency, Mean ± SEM ([1]; Table 4, after 1 week (day 16), SH 0.5 mg/kg i.p. alone): 22.11 ± 5.03%; Transfer Latency, Day 8 ([1]; Table 15, SH 0.5 mg/kg i.p. alone group, mean ± SD): 160.00 ± 66.68 s; Transfer Latency, Day 9 [1, 14]: 106.00 ± 42.81^aa s; Transfer Latency, Day 16 [1, 14]: 48.17 ± 12.73 ^aaa s; % Decrease in Transfer Latency, Mean ± SD ([1]; after 24 h (day 9), SH 0.5 mg/kg i.p. alone): 29.86 ± 17.79%; % Decrease in Transfer Latency, Mean ± SEM ([1]; Table 17, after 1 week (day 16), SH 0.5 mg/kg i.p. alone): 63.54 ± 18.87^aa %
CC1=C(CO)C(=O)O[C@@H]([C@@H](C)[C@H]2CC[C@H]3[C@@H]4C[C@H]5O[C@]56[C@@H](O)C(NCCc5c[nH]c7ccccc57)CC(=O)[C@]6(C)[C@H]4CC[C@]23C)C1 (stereo partly shown) [Tryptamino-withaferin-A conjugate] | significantly attenuated and reversed the Scopolamine-induced amnesia | 56.17 ± 21.99^b s | 16.50 ± 9.52^bbb s | 178.00 ± 117.90 | 51.67 ± 15.28 ^b s | 15.17 ± 10.09^bbb s | 159.00 ± 126.20 | 54.97 ± 27.54 | 59.93 ± 13.31% | 88.10 ± 6.17^b % | 85.72 ± 11.96^bb % | good dose-dependent in-vitro acetylcholinesterase inhibitory activity | 56.1 | –
CC1=C(CO)C(=O)O[C@@H]([C@@H](C)[C@H]2CC[C@H]3[C@@H]4C[C@H]5O[C@]56[C@@H](O)C=CC(=O)[C@]6(C)[C@H]4CC[C@]23C)C1 [Withaferin-A, Withaferin A, reference compound] | – | – | – | – | – | – | – | – | – | – | – | only feeble inhibitory activity | – | MDA Content, brain tissue [3]: 4.77 ± 0.07 nmol/mL; effect on Scopolamine-induced amnesia (in words) ([1]; Example 4A, WS extract and fractions p.o. 16 days): did not protect from or attenuate the Scopolamine-induced amnesia; Transfer Latency, Day 9 ([1]; Table 2, 24 h after SH 0.5 mg/kg i.p., test sample p.o. (50/20/30/1/1 mg/kg), mean ± SEM, n=8): 124.00 ± 13.27 s; Transfer Latency, Day 8 ([1]; Table 2, test sample p.o. daily (WS-74 50, Ace Sol 20, Ace Insol 30, IAEF-A 1, Withaferin-A 1 mg/kg), mean ± SEM, n=8): 180.40 ± 8.04 s; Transfer Latency, Day 16 ([1]; Table 2, one week after SH 0.5 mg/kg i.p., test sample p.o. 16 days (50/20/30/1/1 mg/kg), mean ± SEM, n=8): 114.90 ± 13.10 s; % Decrease in Transfer Latency, Mean ± SEM ([1]; Table 3, after 24 h (day 9), test sample p.o. (50/20/30/1/1 mg/kg) + SH 0.5 mg/kg i.p., n=8): 29.28 ± 9.43%; % Decrease in Transfer Latency, Mean ± SEM ([1]; Table 4, after 1 week (day 16), test sample p.o. (50/20/30/1/1 mg/kg) + SH 0.5 mg/kg i.p., n=8): 34.33 ± 9.30%; anxiolytic effect in open field test (in words) (mice): did not show any anxiolytic effect
